The values that follow come from patent US9284562B2, “Biological circuit chemotactic converters” (Trustees of Boston University, priority 2009, dated 2016).

The target in data set [1] is Hin recombinase (Salmonella typhimurium, UniProt P03013). Particulars: relative to hixL and hixR; cited from earlier work.
For data set [2], the target named is Hin (Salmonella typhimurium, UniProt P03013). Particulars: relative to wild type sites hixL and hixR; cited from earlier work.
In data set [3] the test system is GFP expression. Kind of data set: Exemplary SIMM circuit of FIG. 2B, GFP output (FIG. 2C). Particulars: inducer added to the exemplary SIMM circuit of FIG. 2B. The data set is classed as cell-based. An excerpt:
FIGS. 2A-2C depict an exemplary switch-module (SIMM) for use in the converters described herein and data from the exemplary switch module (SIMM). FIG. 2A depicts an exemplary SIMM comprising a first inducible promoter sequence (P inducible,1) linked to a forward recombinase recognition site (R1RS), an inverted sequence of a second inducible promoter (P inducible,2), a recombinase sequence (Recombinase 1), and a reverse recombinase recognition site (R1RS). Further upstream of the first inducible promoter sequence of the SIMM is an inverted sequence of a constitutively active inducer agent that is specific for the second inducible promoter. Downstream of the reverse recombinase recognition site of the SIMM is an inverted sequence of a third inducible promoter (P inducible,3) and a sequence encoding a dominant negative version of the inducer agent specific for the second inducible promoter. A further component of the exemplary circuit is a sequence of the second inducible promoter operably linked to an output product. In the absence of any inducing agent, constitutive expression of the inducer agent that is specific for the second inducible promoter drives expression from the inducible promoter operably linked to an output product. […]

Data set [4] deals with signaling complex. Particulars: read-out: Affinity (Kd) for signaling complex; cited from earlier work.

Hin recombinase, sequence (P03013 whole entry): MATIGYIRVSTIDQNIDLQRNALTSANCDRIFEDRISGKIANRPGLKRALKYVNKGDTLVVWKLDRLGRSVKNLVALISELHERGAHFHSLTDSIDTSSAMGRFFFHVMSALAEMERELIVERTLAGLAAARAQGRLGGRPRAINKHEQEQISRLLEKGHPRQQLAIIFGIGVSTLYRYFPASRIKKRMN
Hin, sequence (P03013 whole entry): as above

With “hixC: composite 26 bp symmetrical hix site, binding site for Salmonella typhimurium Hin recombinase (DNA TTATCAAAAACCATGGTTTTTGATAA; chemistry not given here)”, the “fold slower inversion rate than wild type sites hixL and hixR” value in data set [1] was 16 fold. Moreover, in data set [2], the “binding affinity for Hin” value is “higher binding affinity for Hin”.
As for `CC(C)S[C@@H]1O[C@H](CO)[C@H](O)[C@H](O)[C@H]1O` [IPTG, isopropyl β-D-1-thiogalactopyranoside], the “Effect on GFP expression of the circuit” value in data set [3] is listed as “restores the circuit to its initial state”.
Take `Cc1c2c(c(O)c3c(O)cccc13)C(=O)[C@]1(O)C(=O)C(C(N)=O)=C(O)[C@@H](N(C)C)[C@@H]1C2` [anhydrous tetracycline, Anhydrotetracycline]: the “Effect on GFP expression of the circuit” value in data set [3] was “inhibits GFP expression”.
Consider Maltose-binding protein, for which the Kd in data set [4] is 250 µM.

A word on the Kd: it is the free concentration of one partner at which half of the binding sites on the other are occupied at equilibrium, for simple one-to-one binding.
